What was measured:
[1] = Inhibition of ATF6 activity in human U2OS cells in presence of ER stress inducer thapsigargin (Tg) measured by TRE-luciferase reporter assay; assay type: cell-based
U2OS = test: Inhibition of ATF6 activity in human U2OS cells at 1 uM in presence of ER stress inducer thapsigargin (Tg) measured by TRE-luciferase reporter assay relative to control; assay type: cell-based
[2] = Clearance in Balb/C mouse plasma at 10 mg/kg, po by LC-MS analysis; assay type: ADME, organism-based
[3] = AUC (last) in Balb/C mouse plasma at 10 mg/kg, po by LC-MS analysis; assay type: ADME, organism-based; design: time 0 - last, route oral, dose 10 mg/kg
[4] = AUC (infinity) in Balb/C mouse plasma at 10 mg/kg, po by LC-MS analysis; assay type: ADME, organism-based; design: route oral, time infinity, dose 10 mg/kg
[5] = Half-life in Balb/C mouse plasma at 10 mg/kg, po by LC-MS analysis; assay type: ADME, organism-based

| SMILES | IC50 [1] | inhibition (U2OS) [%] | also measured |
| --- | --- | --- | --- |
| C[C@@H](c1ccc(C(F)(F)F)cc1C(F)(F)F)n1cc(NC(=O)c2coc(-c3ccccn3)n2)cn1 | > 10 µM | < 25 | – |
| C[C@H](c1ccc(C(F)(F)F)cc1C(F)(F)F)n1cc(NC(=O)c2nnc(-c3ccccn3)s2)cn1 | – | – | CL/F [2]: 2.68 mL/min/kg |
| C[C@@H](c1ccc(C(F)(F)F)cc1C(F)(F)F)n1cc(NC(=O)c2nnc(-c3ccccn3)s2)cn1 | in the range around 1 µM | < 25 | – |
| Cc1c(NC(=O)c2cc(-c3ccccn3)on2)cnn1Cc1ccc(C(F)(F)F)cc1C(F)(F)F | in the range around 1 µM | 25 | – |
| O=C(Nc1cnn(Cc2ccc(C(F)(F)F)cc2)c1)c1cc(-c2ccco2)on1 | > 10 µM | < 25 | – |
| C[C@H](c1ccc(C(F)(F)F)cc1C(F)(F)F)n1cc(NC(=O)c2cnc(-c3ccccn3)s2)cn1 | in the range around 1 µM | 25 | – |
| Cc1nn([C@H](C)c2ccc(C(F)(F)F)cc2C(F)(F)F)cc1NC(=O)c1cc(-c2ccccn2)on1 | – | 25 | – |
| C[C@H](c1ccc(F)cc1C(F)(F)F)n1cc(NC(=O)c2cc(-c3ccccn3)on2)cn1 | in the range around 1 µM | 25 | – |
| C[C@H](c1ccc(C(F)(F)F)cc1C(F)(F)F)n1cc(NC(=O)c2cc(-c3ccco3)on2)cn1 | – | < 25 | – |
| Cc1c(NC(=O)c2cc(-c3ccccn3)on2)cnn1[C@H](C)c1ccc(C(F)(F)F)cc1C(F)(F)F | in the range around 1 µM | 25 | – |
| C[C@H](c1ccc(C(F)(F)F)cc1C(F)(F)F)n1cc(NC(=O)c2cc(-c3ccccn3)on2)cn1 | – | < 25 | – |
| Cc1cccc(-c2cc(C(=O)Nc3cnn([C@H](C)c4ccc(C(F)(F)F)cc4C(F)(F)F)c3)no2)n1 | – | 25 | – |
| CC(c1ccc(C(F)(F)F)cc1C(F)(F)F)n1cc(NC(=O)c2cnc(-c3ccccn3)s2)cn1 (stereo not given) | in the range around 1 µM | – | – |
| C[C@H](c1ccc(C(F)(F)F)cc1C(F)(F)F)n1cc(NC(=O)c2cn(-c3ccccn3)nn2)cn1 | – | 25 | – |
| O=C(Nc1cnn(Cc2ccc(C(F)(F)F)cc2C(F)(F)F)c1)c1cc(-c2ccncc2)on1 | in the range around 1 µM | – | – |
| C[C@@H](c1ccc(C(F)(F)F)cc1C(F)(F)F)n1cc(NC(=O)c2cc(-c3ccccn3)on2)cn1 | – | > 50 | CL/F [2]: 5.17 mL/min/kg |
| C[C@@H](c1ccc(C(F)(F)F)cc1C(F)(F)F)n1cc(NC(=O)c2cnc(-c3ccccn3)o2)cn1 | > 10 µM | < 25 | – |

| SMILES | IC50 [1] | inhibition (U2OS) [%] | also measured |
| --- | --- | --- | --- |
| Cc1cccc(-c2cc(C(=O)Nc3cnn(Cc4ccc(C(F)(F)F)cc4C(F)(F)F)c3)no2)n1 | – | 25 | – |
| O=C(Nc1cnn(Cc2ccc(C(F)(F)F)cc2C(F)(F)F)c1)c1cc(-c2ccccn2)on1 | – | – | CL/F [2]: 16.2 mL/min/kg |
| O=C(Nc1cnn(Cc2ccc(C(F)(F)F)cc2C(F)(F)F)c1)c1cnc(-c2ccccn2)s1 | in the range around 1 µM | – | – |
| CC(c1ccc(C(F)(F)F)cc1C(F)(F)F)n1cc(NC(=O)c2cc(-c3cccs3)on2)cn1 (stereo not given) | in the range around 1 µM | – | – |
| C[C@@H](c1ccc(C(F)(F)F)cc1C(F)(F)F)n1cc(NC(=O)c2cc(-c3ccco3)on2)cn1 | – | – | CL/F [2]: 267 mL/min/kg |
| C[C@H](c1ccc(C(F)(F)F)cc1C(F)(F)F)n1cc(NC(=O)c2nnc(-c3ccncn3)s2)cn1 | – | 25 | – |
| C[C@H](c1ccc(C(F)(F)F)cc1C(F)(F)F)n1cc(NC(=O)c2cc(-c3cnccn3)on2)cn1 | – | – | CL/F [2]: 1.56 mL/min/kg |
| C[C@H](c1ccc(C(F)(F)F)cc1C(F)(F)F)n1cc(NC(=O)c2cc(-c3ccccn3)no2)cn1 | – | – | CL/F [2]: 3.68 mL/min/kg |
| CC(c1ccc(C(F)(F)F)cc1C(F)(F)F)n1cc(NC(=O)c2cc(-c3ccccn3)nn2C)cn1 (stereo not given) | – | 25 | – |
| Cc1ccc(-c2cc(C(=O)Nc3cnn(Cc4ccc(C(F)(F)F)cc4C(F)(F)F)c3)no2)o1 | in the range around 1 µM | – | – |
| O=C(Nc1cnn(Cc2ccccc2)c1)c1cc(-c2ccco2)on1 | > 10 µM | < 25 | – |
| CN(C(=O)c1cc(-c2ccccn2)on1)c1cnn(Cc2ccc(C(F)(F)F)cc2C(F)(F)F)c1 | in the range around 1 µM | 25 | – |
| O=C(Nc1cnn(C2CCc3ccccc32)c1)c1nnc(-c2ccco2)o1 (stereo not given) | > 10 µM | < 25 | – |
| O=C(Nc1cnn(Cc2ccc(C(F)(F)F)cc2C(F)(F)F)c1)c1cc(-c2cccs2)on1 | – | 25 | – |
| O=C(Nc1cnn(Cc2ccc(C(F)(F)F)cc2C(F)(F)F)c1)c1cc(-c2ccco2)on1 | < 1 µM | > 50 | AUC(0-t) [3]: 39.1 ng·h/mL; AUC(0-inf) [4]: 43.3 ng·h/mL; CL/F [2]: 3850 mL/min/kg; half-life [5]: 2.49 h |
| C[C@@H](c1ccc(C(F)(F)F)cc1C(F)(F)F)n1cc(NC(=O)c2nnc(-c3ccco3)s2)cn1 | – | 25 | – |
